# Results taken from US20130072506A1, “6,8-DISUBSTITUTED PURINE COMPOSITIONS” (priority 2011, published 2013).
# Legend:
# [1] = tested on: cytokinin-dependent tobacco callus; assay: Growth of cytokinin-dependent tobacco callus (plant cell division); format: cell-based, Nicotiana tabacum L. cv. Wisconsin 38; settings: for Activity (%): at concentration with highest activity, activity of kinetin set at 100%
# Experimental: The effect on plant cell division. Cytokinin-dependent tobacco callus Nicotiana tabacum L. cv. Wisconsin 38 was maintained at 25° C. in darkness on modified MS medium, containing 4 μmol/l nicotinic acid, 2.4 μmol/l pyridoxine hydrochloride, 1.2 μmol/l thiamine, 26.6 μmol/l glycine, 1.37 μmol/l glutamine, 1.8 μmol/1 myo-inositol, 30 g/l of sucrose, 8 g/l of agar, 5.37 μmol/l NAA and 0.5 μmol/l BAP. Subcultivation was carried out every three weeks. Fourteen days before the bioassay, the callus tissue was transferred to the media without BAP. Biological activity was determined from the increase in fresh callus weight after four weeks of cultivation. Five replicates were prepared for each cytokinin concentration and the entire test was repeated twice. From the obtained data, the concentration with highest activity was selected for each compound tested. Relative activity at this concentration was calculated (see Table 4 below).
# The cytokinins to be tested were dissolved in dimethylsulfoxide (DMSO) and the solution brought up to 10^−3M with distilled water.
# [2] = tested on: Amaranthus caudatus cotyledon/hypocotyl explants; assay: Amaranthus bioassay (betacyanin content); format: in vivo, Amaranthus caudatus var. atropurpurea; settings: for Activity (%): at concentration with highest activity, activity of kinetin set at 100%; for Concentration with highest activity: betacyanin content, 48 hours in darkness
# Experimental: Testing of Novel Compounds in Amaranthus bioassay. Standard Amaranthus bioassay was performed with several modifications. The seeds of Amaranthus caudatus var. atropurpurea were surface-sterilized in 10% N-chlorobenzene sulfonamide (w/v) for 10 min and washed 5 times in deionized water. They were placed in 14 cm Petri dishes containing paper tissues saturated with deionized water. After 72 hours of cultivation at 25° C. in darkness, the roots of the seedlings were cut off. The explants, consisting of two cotyledons and hypocotyls, were placed in 5 cm Petri dishes on two layers of filter paper soaked in 1 ml of incubation medium containing 10 μmol Na2HPO4—KH2PO4, pH 6.8, 5 μmol tyrosine and the cytokinin to be tested. There were 20 explants per dish. The procedure was carried out under a green safe light in a darkroom. After a 48 hours of incubation at 25° C. in darkness, betacyanin was extracted by freezing the explants in 4 ml 3.33 μM acetic acid. The concentration of betacyanin was determined by comparing the absorbance at 537 nm and 620 nm as follows: DA=A537nm−A620nm. From the obtained data, the concentration with highest activity was selected for each compound tested. Relative activity of the compound at this concentration was calculated (see Table 3 below). […] The values shown in Table 3 are means of five replicates and the entire test was repeated twice.
# The cytokinins to be tested were dissolved in dimethylsulfoxide (DMSO) and the solution brought up to 10^−3 M with distilled water.
# [3] = tested on: Human diploid fibroblast BJ; assay: In vitro cytotoxic activity (metabolisation of MTT); format: cell-based; settings: 72 hours, BJ passage 18-22
# Experimental: In vitro Cytotoxic Activity (metabolisation of Mtt). MTT ([…]) assay is a standard colorimetric assay for evaluation of cytotoxicity. Mitochondrial dehydrogenase activity converts yellow MTT into violet formazan which is measured by means of spectrometry.
# Human diploid fibroblast BJ (passage 18-22) were seeded into 96-well plate (5.000 cells per well). After 6 hours cultivation medium (DMEM with 5 g/l glucose, 2 mM glutamine, 100 U/ml penicillin, 100 mmg/ml streptomycin, 10% fetal calf serum and sodium bicarbonate) was replaced with the cultivation medium containing test compounds in concentration range of 0-200 μM. Highest concentration was adjusted if the solubility of the compound was limiting. Every concentration was tested in pentaplicate. MTT was added to the cells after 72 hours incubation (final concentration 0.5 mg/ml) and incubation continued for another 3 hours. MTT was solubilised by DMSO and absorbance at 570 nm was measured. Growth inhibition (GI) was estimated using the following equitation: GI=(mean A drug exposed wells−mean Ablank/mean Acontrol wells−mean Ablank)×100%. The GI20 value, the drug concentration causing 20% decrease in mitochondrial dehydrogenase activity, was calculated from the obtained dose response curves.
# melanoma cell line G-361 = assay: In vitro cytotoxic activity (metabolisation of Calcein AM); format: cell-based, human; settings: Homo sapiens, G-361 cells, 72 hours incubation, called GI50, read-out: Cell line tested/IC50 (μmol/L) G-361
# Source text: (§1) In vitro Cytotoxic Activity (Metabolisation of Calcein AM). Because toxic compounds negatively influence metabolic processes of cells, many standard cytotoxicity assays are based on measurement of metabolisation rate of various artificial substrates. Resulting product is then quantified, for example, by means of spectrometry. The assays can be easily modified for use in 96-well plates. For evaluation of cytotoxicity of the 6,8-disubstituted purines of this invention, a microtiter assay based on quantification of metabolisation of Calcein AM was used. The assay is widely used in drug screening programs and in chemosensitivity testing. In live cells, Calcein AM is enzymatically hydrolysed and accumulation of resulting calcein is manifested by green fluorescence.
# (§2) The following human cell lines were used for routine screening of the compounds: normal diploid fibroblasts BJ, T-lymphoblastic leukemia cell line CEM, promyelocytic leukemia cell line HL-60, erytroid leukemia cell line K-562, breast carcinoma cell line MCF-7, osteosarcoma cell line HOS and melanoma cell line G-361. The cells were maintained in Nunc/Corning 80 cm^2 plastic tissue culture flasks and cultured in cell culture medium (DMEM with 5 g/l glucose, 2 mM glutamine, […] penicillin, 100 mmg/ml streptomycin, 10% fetal calf serum and sodium bicarbonate).
# (§3) The cell suspensions were prepared and diluted according to the particular cell type and the expected target cell density (2.500-30.000 cells per well based on cell growth characteristics) and pipetted (80 μl) into 96-well plates. Inoculates were allowed a pre-incubation period of 24 hours at 37° C. and 5% CO2 for stabilization. Tested compound was added in total volume of […] of water at time zero. Usually, test compound was evaluated at six 3-fold dilutions. In routine testing, the highest concentration tested was 100 μM, but it could have been adjusted because of limited solubility of a compound. All drug concentrations were tested in triplicates.
# (§4) Incubations of cells with the test compounds lasted for 72 hours at 37° C., in 5% CO2 atmosphere and 100% humidity. At the end of incubation period Calcein AM in PBS was added into final concentration of 1 μg/ml. After another 1 hour of incubation fluorescence (FD) was measured with the Labsystem FIA Reader Fluoroscan Ascent (UK). Growth inhibition (GI) was estimated using the following equitation: GI=(mean FDdrug exposed wells−mean FDblank)/(mean FDcontrol wells−mean FDblank)×100%. The GI50 value, the drug concentration causing 50% reduction of Calcein AM conversion, was calculated from the obtained dose response curves.
# [4] = tested on: osteosarcoma cell line HOS; assay: as above; format: cell-based, human; settings: Homo sapiens, HOS cells, 72 hours incubation, called GI50, read-out: Cell line tested/IC50 (μmol/L) HOS
# Source text: as §1, §2, §3, §4
# [5] = tested on: normal diploid fibroblasts BJ; assay: as above; format: cell-based, human; settings: Homo sapiens, BJ cells, 72 hours incubation, called GI50, read-out: Cell line tested/IC50 (μmol/L) BJ
# Source text: as §1, §2, §3, §4
# [6] = tested on: breast carcinoma cell line MCF-7; assay: as above; format: cell-based, human; settings: Homo sapiens, MCF7 cells, 72 hours incubation, called GI50, read-out: Cell line tested/IC50 (μmol/L) MCF7
# Source text: as §1, §2, §3, §4
# [7] = tested on: T-lymphoblastic leukemia cell line CEM; assay: as above; format: cell-based, human; settings: Homo sapiens, CCRF-CEM, CEM cells, 72 hours incubation, called GI50, read-out: Cell line tested/IC50 (μmol/L) CEM
# Source text: as §1, §2, §3, §4
# [8] = tested on: erytroid leukemia cell line K-562; assay: as above; format: cell-based, human; settings: Homo sapiens, K562, K-562 cells, 72 hours incubation, called GI50, read-out: Cell line tested/IC50 (μmol/L) K-562
# Source text: as §1, §2, §3, §4
compound,measurement,setting,value
"CC(C)=CCNc1ncnc2nc(N)[nH]c12 [Compound 87, 6-(3-methylbut-2-en-1-ylamino)-8-aminopurine]",Activity (%),[1],150.44%
same,Activity (%),[2],171.36%
same,Concentration with highest activity,[2],10^−4 mol/l
same,GI20,[3],>100 µM
same,IC50,melanoma cell line G-361,> 50 µmol/L
same,IC50,[4],> 50 µmol/L
same,IC50,[5],> 50 µmol/L
same,IC50,[6],> 50 µmol/L
same,IC50,[7],> 50 µmol/L
same,IC50,[8],> 50 µmol/L
"Nc1nc2ncnc(NCc3ccccc3)c2[nH]1 [Compound 83, 8-Amino-6-benzylaminopurine]",Activity (%),[1],197.08%
same,melting point,,223 to 226 °C
same,GI20,[3],>100 µM
same,IC50,melanoma cell line G-361,> 50 µmol/L
same,IC50,[4],> 50 µmol/L
same,IC50,[5],> 50 µmol/L
same,IC50,[6],> 50 µmol/L
same,IC50,[7],> 50 µmol/L
same,IC50,[8],> 50 µmol/L
"NCc1nc2ncnc(NCc3ccccc3)c2[nH]1 [Compound 181, 8-Aminomethyl-6-benzylaminopurine]",melting point,,187 to 189 °C
same,IC50,melanoma cell line G-361,> 50 µmol/L
same,IC50,[4],> 50 µmol/L
same,IC50,[5],> 50 µmol/L
same,IC50,[6],> 50 µmol/L
same,IC50,[7],> 50 µmol/L
same,IC50,[8],> 50 µmol/L
COC(=O)c1nc2ncnc(NCc3ccccc3)c2[nH]1 [Compound 188],Activity (%),[1],148.91%
same,Concentration with highest activity,[1]; increase in fresh callus weight after four weeks,10^−6 mol/l
same,Activity (%),[2],122.51%
same,Concentration with highest activity,[2],10^−4 mol/l
"NCCCNc1nc2ncnc(NCc3ccccc3)c2[nH]1 [Compound 209, 8-(3-Aminopropylamino)-6-benzylaminopurine]",Activity (%),[1],150.01%
same,melting point,,170 to 173 °C
same,GI20,[3],>100 µM
same,IC50,melanoma cell line G-361,> 50 µmol/L
same,IC50,[4],> 50 µmol/L
same,IC50,[5],> 50 µmol/L
same,IC50,[6],> 50 µmol/L
same,IC50,[7],> 50 µmol/L
same,IC50,[8],> 50 µmol/L
"CSc1nc2ncnc(NCc3ccccc3)c2[nH]1 [Compound 148, 6-Benzylamino-8-methylsulphanylpurine]",Activity (%),[1],109.36%
same,melting point,,234 to 237 °C
"Oc1nc2ncnc(NCc3ccccc3)c2[nH]1 [Compound 167, 6-Benzylamino-8-hydroxypurine]",melting point,,243 to 247 °C
same,IC50,melanoma cell line G-361,> 50 µmol/L
same,IC50,[4],> 50 µmol/L
same,IC50,[5],> 50 µmol/L
same,IC50,[6],> 50 µmol/L
same,IC50,[7],> 50 µmol/L
same,IC50,[8],> 50 µmol/L
"CSc1nc2ncnc(NCC=C(C)C)c2[nH]1 [Compound 149, 6-(3-Methylbut-2-en-1-ylamino)-8-methylsulphanylpurine]",melting point,,96 to 99 °C
"COc1nc2ncnc(NCc3ccccc3)c2[nH]1 [Compound 121, 6-Benzylamino-8-methoxypurine]",Activity (%),[1],129.11%
same,Activity (%),[2],121.15%
same,Concentration with highest activity,[2],10^−4 mol/l
same,IC50,melanoma cell line G-361,> 50 µmol/L
same,IC50,[4],> 50 µmol/L
same,IC50,[5],> 50 µmol/L
same,IC50,[6],> 50 µmol/L
same,IC50,[7],> 50 µmol/L
same,IC50,[8],> 50 µmol/L
"COc1nc2ncnc(NCc3ccco3)c2[nH]1 [Compound 120, 6-Furfurylamino-8-methoxypurine]",melting point,,196 to 198 °C
same,IC50,melanoma cell line G-361,> 50 µmol/L
same,IC50,[4],> 50 µmol/L
same,IC50,[5],> 50 µmol/L
same,IC50,[6],> 50 µmol/L
same,IC50,[7],> 50 µmol/L
same,IC50,[8],> 50 µmol/L
"O=C(O)c1nc2ncnc(NCc3ccccc3)c2[nH]1 [Compound 202, 6-Benzylaminopurine-8-carboxylic acid]",melting point,,230 to 232 °C
"CN(C)c1nc2ncnc(NCc3ccco3)c2[nH]1 [Compound 61, 8-Dimethylamino-6-furfurylaminopurine]",melting point,,245 to 246 °C
"COc1nc2ncnc(NCC=C(C)C)c2[nH]1 [Compound 123, 8-Methoxy-6-(3-methylbut-2-en-1-ylamino)purine]",melting point,,205 to 210 °C
